In patent US11174301B2 (Takeda Pharmaceutical Company Limited, priority 2017, dated 2021):

Key:
Assay type in all cases: in vivo
ferrets [1] = assay: Morphine-induced acute emetic model in ferrets; settings: for Ferrets in which the vomiting symptom was observed: 30 nmol/kg s.c., morphine 0.6 mg/kg s.c. 4 hours after administration, monitored 60 minutes, FIG. 6A; for Ferrets in which the vomiting symptom was observed / Vomiting symptom, morphine 120 hours after administration: n=4; for Vomiting symptom, morphine 120 hours after administration: 144 μg/kg (30 nmol/kg) s.c., morphine 0.6 mg/kg s.c. 120 hours after administration, FIG. 6B; for Morphine-induced emesis: 1 nmol/kg s.c. 30 minutes before morphine (0.6 mg/kg, s.c.)
Protocol: 4. Effect of Subcutaneously Administered GIP Agonist Analogue in Morphine-Induced Acute Emetic Model
Male ferrets (4-month-old) were repeatedly used until 8-month-old. To evaluate the antiemetic effect, the GIP agonist analogues other than natural human GIP were subcutaneously administered 30 minutes before morphine administration. Natural human GIP was subcutaneously administered 5 minutes before morphine administration.
At the time of each of 4 hours, or 120 hours after administration, 0.6 mg/kg of morphine was subcutaneously administered. Up to 60 minutes after morphine administration, the condition of the ferrets was monitored to record the frequencies and time points of abdominal contraction motions, vomiting behaviors, licking with the tongue, and fidgety behavior occurring.

C57BL/6J mice [2] = assay: Oral glucose tolerance test (2); settings: 3 nmol/kg, s.c. 72 hours before glucose loading, 30 minutes after oral glucose, control group = 100
Protocol: Oral Glucose Tolerance Test (2)
An oral glucose tolerance test (OGTT) was carried out using C57BL/6J mice with a […].

ferrets [3] = assay: Cisplatin-induced delayed vomiting model in ferrets; settings: monitored 72 hours
Protocol: Up to 72 hours after cisplatin administration, the condition of the ferrets was monitored to record the frequencies and time points of abdominal contraction motions and vomiting behaviors occurring.

C57BL/6J mice [4] = assay: Oral glucose tolerance test (1); settings: 0.03 nmol/kg, s.c. 30 minutes before glucose loading, control group = 100; for Rate of increase in blood glucose level (%) 30 min: 30 minutes after oral glucose; for Rate of increase in blood glucose level (%) 60 min: 60 minutes after oral glucose
Protocol: Oral Glucose Tolerance Test (1)
An oral glucose tolerance test (OGTT) was carried out using C57BL/6J mice with a […].

ferrets [5] = assay: Cisplatin-induced acute vomiting model in ferrets
Protocol: Test Example 4: Vomiting Suppression Test in Ferrets
The ferret test was carried out by Nissei Bilis Co., Ltd. (Shiga prefecture, Japan). Cisplatin (10 mg/kg i.p.) was administered to male ferrets (10-week-old, n=6) to induce acute vomiting. […] The frequency of emesis (feeling queasy, vomiting) was monitored over a period of 8 hours after cisplatin administration.
Up to 6 hours after cisplatin administration, the condition of the ferrets was monitored to record the frequencies and time points of abdominal contraction motions and vomiting behaviors occurring.

beagles = assay: PYY-1119-induced vomiting in dogs; settings: for Frequency of vomiting: 2-hour observation
male C57BL/6J mice = assay: Conditioned taste aversion test in mice (PYY-1119-induced)
Protocol: Test Example 3: Conditioned Taste Aversion Test in Mice (FIG. 1A, FIG. 1B)
Additionally, the test compound or a solvent is subcutaneously administered simultaneously with PYY-1119.
On day 2, only a solvent is administered 10 minutes after presenting tap water.
On day 4, only tap water is presented.
On day 5, a test of selection from the bottles of saccharine water and tap water is carried out and preferential selection of saccharine water is evaluated.

Substance | Rate of increase in blood glucose level (%) 30 min (C57BL/6J mice [4]) [%] | Rate of increase in blood glucose level (%) 60 min (C57BL/6J mice [4]) [%] | Morphine-induced emesis (ferrets [1]; FIG. 3, FIG. 4) | other results
H-MeTyr-Aib-Glu-Gly-Thr-Iva-Ile-Ser-Asp-Tyr-Ser-Ile-Aib-Leu-Asp-Arg-Lys(Oda-GGGGG-)-Ala-Gln-Aib-Asn-Phe-Val-Asn-Trp-Iva-Leu-Ala-Gln-Arg-Pro-Ser-Ser-Gly-Ala-Pro-Pro-Pro-Ser-NH2 [Compound 349] |  |  |  | Ferrets in which the vomiting symptom was observed (ferrets [1]): none of the 4 ferrets; Vomiting symptom, morphine 120 hours after administration (ferrets [1]): suppression of the vomiting symptom was noted; Rate of increase in blood glucose level (%) 72 hr (C57BL/6J mice [2]): 69%
H-MeTyr-Aib-Glu-Gly-Thr-Iva-Ile-Ser-Asp-Tyr-Ser-Ile-Aib-Lys(Eda-GGGGG-)-Asp-Arg-Aib-Ala-Gln-Aib-Asn-Phe-Val-Asn-Trp-Iva-Leu-Ala-Gln-Arg-Pro-Ser-Ser-Gly-Ala-Pro-Pro-Pro-Ser-NH2 [Compound 341] |  |  |  | Ferrets in which the vomiting symptom was observed (ferrets [1]): none of the 4 ferrets; Vomiting symptom, morphine 120 hours after administration (ferrets [1]): none of the 4 ferrets; Rate of increase in blood glucose level (%) 72 hr (C57BL/6J mice [2]): 47%; Cisplatin-induced delayed vomiting symptom (ferrets [3]; 144 μg/kg (30 nmol/kg) s.c. 34 hours after cisplatin 5 mg/kg i.p.): suppression of the vomiting symptom was noted
H-Tyr-Aib-Glu-Gly-Thr-Val-Val-Ser-Leu-Tyr-Ser-Ile-Aib-Leu-Asp-Arg-Gln-Ala-Gln-Aib-Glu-Phe-Val-Arg-Trp-Leu-Leu-Arg-Gly-Gly-Pro-Ser-Ser-Gly-Ala-Pro-Pro-Pro-Ser-Arg-NH2 [Compound 30] | 96 | 85 |  | 
H-Tyr-Aib-Glu-Gly-Thr-Val-Val-Ser-Leu-Tyr-Ser-Ile-Aib-Leu-Asp-Lys-Gln-Ala-Gln-Aib-Glu-Phe-Val-Lys-Trp-Aib-Leu-Lys-Gly-Gly-Pro-Ser-Ser-Gly-Ala-Pro-Pro-Pro-Ser-Lys-NH2 [Compound 42] | 70 | 43 |  | 
H-Tyr-Aib-Glu-Gly-Thr-Val-Val-Ser-Leu-Tyr-Ser-Ile-Aib-Leu-Asp-Lys-Gln-Ala-Gln-Aib-Glu-Phe-Val-Lys-Trp-Leu-Leu-Lys-Gly-Gly-Pro-Ser-Ser-Gly-Ala-Pro-Pro-Pro-Ser-Lys-NH2 [Compound 6] | 56 | 31 | completely attenuated | Cisplatin-induced acute emesis (frequency of emesis) (ferrets [5]; 167 nmol/kg/hour subcutaneously injected from 1 hour before cisplatin (10 mg/kg i.p.), monitored 8 hours, FIG. 2A): completely eliminated the acute emesis; Frequency of vomiting (beagles; 150 nmol/kg s.c. 10 minutes before PYY-1119 (10 μg/kg, s.c.), FIG. 7A): 0 to 3 times; PYY-1119-induced taste aversion (male C57BL/6J mice; 1, 3, 10, 30 or 100 nmol/kg s.c. simultaneously with PYY-1119 (10 nmol/kg, s.c.), FIG. 1A): suppressed the PYY-1119-induced taste aversion in a dose-dependent manner
Methyl-Tyr-Aib-Glu-Gly-Thr-Iva-Ile-Ser-Asp-Tyr-Ser-Ile-Aib-Leu-Asp-Arg-Aib-Ala-Gln-Aib-Asn-Phe-Val-Asn-Trp-Iva-Leu-Ala-Gln-Arg-Pro-Ser-Ser-Gly-Ala-Pro-Pro-Pro-Ser-Arg-NH2 [Compound 113] | 48 | 11 |  | Morphine-induced emesis (ferrets [1]; 0.1 nmol/kg, FIG. 5): suppressed the morphine-induced emesis
Methyl-Tyr-Aib-Glu-Gly-Thr-Iva-Ile-Ser-Asp-Tyr-Ser-Ile-Ala-Leu-Asp-Arg-Aib-Ala-Gln-Aib-Asn-Phe-Val-Asn-Trp-Leu-Leu-Ala-Gln-Arg-Pro-Ser-Ser-Gly-Ala-Pro-Pro-Pro-Ser-Arg-NH2 [Compound 104] | 31 | 8 | suppressed the morphine-induced emesis | 
Methyl-Tyr-Aib-Glu-Gly-Thr-Phe-Ile-Ser-Asp-Tyr-Ser-Ile-Ala-Leu-Asp-Arg-Aib-His-Gln-Aib-Asn-Phe-Val-Asn-Trp-Iva-Leu-Ala-Gln-Arg-Pro-Ser-Ser-Gly-Ala-Pro-Pro-Pro-Ser-Arg-NH2 [Compound 117] | 51 | 16 | suppressed the morphine-induced emesis | Latency of the vomiting symptom (time from cisplatin administration to initial occurrence) (ferrets [3]; […] (0.3 nmol/kg) or 15 μg/kg (3 nmol/kg) s.c. 34 hours after cisplatin 5 mg/kg i.p., FIG. 2C): delayed; Cisplatin-induced acute vomiting symptom (ferrets [5]; 0.15, 0.5, 1.5, 5 and 15 μg/kg (0.03, 0.1, 0.3, 1 and 3 nmol/kg) s.c. 1 hour before cisplatin 10 mg/kg i.p., monitored 6 hours, FIG. 2B): suppression of the vomiting symptom was noted in a dose-dependent manner; Frequency of vomiting (beagles; 10 nmol/kg s.c. 1 hour before PYY-1119 (10 μg/kg, s.c.), FIG. 7B): 0 to 3 times; Average suppression rate of the frequency of vomiting (beagles; 10 nmol/kg s.c. 1 hour before PYY-1119, versus medium group): 93%; PYY-1119-induced taste aversion (male C57BL/6J mice; 0.003, 0.01, 0.03, 0.1, 0.3 or 1 nmol/kg s.c. simultaneously with PYY-1119 (10 nmol/kg, s.c.), FIG. 1B): suppressed the PYY-1119-induced taste aversion in a dose-dependent manner
Methyl-Tyr-Aib-Glu-Gly-Thr-Phe-Ile-Ser-Asp-Tyr-Ser-Ile-Ala-Leu-Asp-Arg-Ile-Ala-Gln-Gln-Asp-Phe-Val-Asn-Trp-Leu-Leu-Ala-Gln-Arg-Pro-Ser-Ser-Gly-Ala-Pro-Pro-Pro-Ser-Arg-NH2 [Compound 59] | 41 | 23 |  | 
